Test results as given in patent US11517577B2, “Fluorinated bile acid derivatives” (NZP UK LIMITED, priority 2018, dated 2022).
pEC50: −log10 of the molar value. Where two headings read alike, the source gives them in different places.

How the values were obtained:
[1] = target: T1, Human Farnesoid X Receptor (NR1H4, FXR) (Homo sapiens, UniProt Q96RI1); test: FXR reporter assay, EC50 and efficacy (Indigo Biosciences luciferase reporter cells); type: cell-based; conditions: for Efficacy: maximum point on the dose response curve, GW4064 designated as 100%
T1 sequence (Q96RI1 1-486): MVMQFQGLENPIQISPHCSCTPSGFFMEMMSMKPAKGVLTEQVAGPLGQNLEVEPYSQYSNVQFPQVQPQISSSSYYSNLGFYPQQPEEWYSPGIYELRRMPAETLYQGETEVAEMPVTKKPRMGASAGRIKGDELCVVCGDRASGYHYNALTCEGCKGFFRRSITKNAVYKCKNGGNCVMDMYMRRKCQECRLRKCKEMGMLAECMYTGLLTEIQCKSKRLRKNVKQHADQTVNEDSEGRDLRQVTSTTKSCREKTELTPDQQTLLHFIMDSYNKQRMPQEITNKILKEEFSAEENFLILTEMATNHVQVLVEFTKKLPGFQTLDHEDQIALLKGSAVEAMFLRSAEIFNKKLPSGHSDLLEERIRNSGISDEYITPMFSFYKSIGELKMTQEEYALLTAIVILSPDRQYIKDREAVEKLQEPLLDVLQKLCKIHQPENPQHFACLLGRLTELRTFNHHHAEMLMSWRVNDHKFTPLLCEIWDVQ
Protocol: The compounds of the invention were assayed for agonist activity at the FXR receptor.
Dose-response assays were performed as described in the technical manual of the Human Farnesoid X Receptor (NR1H4, FXR) Reporter Assay System (Indigo Biosciences Human Farnesoid X Receptor (NR1H4, FXR) Reporter Assay System, Technical Manual (version 7.1b), at the World Wide Web (www)indiqobiosciences.com).
FXR reporter cells consisting of an FXR-responsive promoter gene functionally linked to the luciferase gene were defrosted and seeded into a 96-well plate and these cells were immediately dosed with the test compounds at different concentrations (10-0.05 μM) according to the manufacturer's protocol. […] Following this, the induction of luciferase activity, which is the measure of the agonist activity, was quantified by using luminometer (TECAN) according to the manufacturer's protocol.

[2] = Xiao et al., 2017; cited from earlier work
[3] = system: SHP expression in Huh7 cells; test: qPCR of SHP (NR0B2) expression in Huh7 cells; type: cell-based, human; conditions: Huh7, 24 hours
Protocol: (§1) To assess specific changes in gene expression in response to the test compounds, precise quantification and analysis by quantitative real-time PCR (qPCR) was carried out. Mammalian tissue culture experiments involved seeding Hepatocellular carcinoma, (Huh7) cells, in 6 well plates at a concentration of 1×10^6 cells/well and incubating for 24 hours at 37° C. to allow attachment.
(§2) Testing in Huh7 cells and HepG2 cells was also carried out for Compound 14 in the same way as for Compound 2.
(§3) Total RNA was extracted using the RNAQUEOUS™ Total RNA Isolation kit (Ambion) and all reagents were provided in the kit or prepared according to manufacturer's instructions. For cultured cells, the medium was removed and cells were washed with 1×PBS to remove cellular debris and residual medium. Total RNA was extracted from fresh cells. For 1×10^6 cells, 350 μl lysis buffer was added directly to the well and cells were harvested by scraping with a pipette tip. Lysed cells were combined with an equal volume of 64% ethanol and mixed thoroughly by pipetting. The ethanol-lysate mix was transferred to a column and spun at 12,000×G for 1 minute and flow through discarded. […]
(§4) The ready-to-use reaction mastermix, ITAQ™ Universal SYBR® Green Supermix (Biorad) was used for all qPCR reactions. […] Melting curve analysis was performed straight after each run by increasing the temperature from 60° C. to 95° C. in 0.3° C. increments, and measuring fluorescence dissociation.
To quantify gene expression, the baseline-corrected Ct value was determined automatically by the qPCR system software (Applied Biosystems). Relative changes in gene expression were determined by the Livak, or ΔΔCt, method whereby the Ct values of target genes were normalised to Ct value of the reference gene, for both the samples treated with vehicle/untreated samples (control) and the samples treated with compound (test samples). […] And finally, the expression ratio was calculated using the equation 2^−ΔΔC^t. […]

[4] = system: OSTα expression in Huh7 cells; test: qPCR of OSTα expression in Huh7 cells; type: cell-based, human; conditions: Huh7, 24 hours
Protocol: as §1, §2
Total RNA was extracted using the RNAQUEOUS™ Total RNA Isolation kit (Ambion) and all reagents were provided in the kit or prepared according to manufacturer's instructions. […]
as §4
(§5) To quantify gene expression, the baseline-corrected Ct value was determined automatically by the qPCR system software (Applied Biosystems). Relative changes in gene expression were determined by the Livak, or ΔΔCt, method whereby the Ct values of target genes were normalised to Ct value of the reference gene, for both the samples treated with vehicle/untreated samples (control) and the samples treated with compound (test samples). […]

[5] = system: CYP7A1 expression in HepG2 cells; test: qPCR of CYP7A1 expression in HepG2 cells; type: cell-based, human; conditions: HepG2, 24 hours
Protocol: (§6) Compound 2 and OCA were also tested in the human hepatocellular carcinoma cell line, HepG2.
as §2
as §3, with “tip.” for “tip. Lysed cells were combined with an equal volume of 64% ethanol and mixed thoroughly by pipetting. The ethanol-lysate mix was transferred to a column and spun at 12,000×G for 1 minute and flow through discarded.”
as §4, §5

[6] = system: TGFβ1 expression in HepG2 cells; test: qPCR of TGFβ1 expression in HepG2 cells; type: cell-based, human; conditions: HepG2, 24 hours
Protocol: as §6, §2
as §3, with “tip.” for “tip. Lysed cells were combined with an equal volume of 64% ethanol and mixed thoroughly by pipetting. The ethanol-lysate mix was transferred to a column and spun at 12,000×G for 1 minute and flow through discarded.”
as §4, §5

TGR5 (GPBAR1) receptor = target: T2, TGR5 (GPBAR1) receptor (Homo sapiens, UniProt Q8TDU6); test: HITHUNTER cAMP assay, agonist mode, TGR5 receptor; conditions: for Emax: read-out: Max Response; for agonist activity at the TGR5 receptor: statement in words on Table 2
T2 sequence (Q8TDU6 1-330): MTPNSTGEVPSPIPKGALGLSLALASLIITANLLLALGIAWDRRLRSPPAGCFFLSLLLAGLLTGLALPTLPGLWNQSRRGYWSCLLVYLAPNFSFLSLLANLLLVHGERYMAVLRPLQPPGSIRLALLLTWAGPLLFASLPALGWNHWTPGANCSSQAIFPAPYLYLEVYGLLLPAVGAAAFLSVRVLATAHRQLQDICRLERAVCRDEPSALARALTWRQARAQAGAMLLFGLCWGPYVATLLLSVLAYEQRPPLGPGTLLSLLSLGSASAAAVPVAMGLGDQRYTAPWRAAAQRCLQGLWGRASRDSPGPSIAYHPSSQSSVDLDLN
Protocol: 1. cAMP Hunter cell lines were expanded from freezer stocks according to standard procedures.
Cells were seeded in a total volume of 20 μL into white walled, 384-well microplates and incubated at 37° C. for the appropriate time prior to testing.
For agonist determination, cells were incubated with sample to induce response.
Media was aspirated from cells and replaced with 15 μL 2:1 HBSS/10 mM Hepes:cAMP XS+ Ab reagent.
Intermediate dilution of sample stocks was performed to generate 4× sample in assay buffer.
5 μL of 4× sample was added to cells and incubated at 37° C. or room temperature for 30 or 60 minutes. Vehicle concentration was 1%.
After appropriate compound incubation, assay signal was generated through incubation with 20 μL cAMP XS+ ED/CL lysis cocktail for one hour followed by incubation with 20 μL cAMP XS+ EA reagent for three hours at room temperature.
Microplates were read following signal generation with a PerkinElmer ENVISION™ instrument for chemiluminescent signal detection.
Compound activity was analyzed using CBIS data analysis suite (ChemInnovation, CA).
For Gs agonist mode assays, percentage activity is calculated using the following formula, where RLU is an abbreviation for relative light units:

| Compound | EC50 ([1]; FXR reporter cells, 24 h incubation, normalized against EC50 of GW4064, assigned as […] nM) | Efficacy [1] | liver:plasma concentration ratio [2] | pEC50 [1] | SHP expression levels increased ([3]; compound at EC50 concentration) | SHP expression levels increased ([3]; higher value, printed again as 'EC50 concentration') | Ostα mRNA increase in expression ([4]; compound at EC50 concentration) | Ostα mRNA increase in expression ([4]; compound at EC90 concentration) | CYP7A1 expression ([5]; with increasing concentrations of compound) | TGFβ1 expression levels ([6]; compound at its EC50 concentration) | pEC50 (TGR5 (GPBAR1) receptor) | Emax (TGR5 (GPBAR1) receptor) | agonist activity at the TGR5 receptor (TGR5 (GPBAR1) receptor) | SHP expression levels ([3]; compound at its EC90 concentration) | CYP7A1 expression ([5]; compound at the EC50 concentration, versus vehicle control cells) | TGFβ1 expression ([6]; with increasing compound concentrations) |
| --- | --- | --- | --- | --- | --- | --- | --- | --- | --- | --- | --- | --- | --- | --- | --- | --- |
| CC[C@H]1[C@@H](O)[C@@H]2[C@H](CC[C@]3(C)[C@@H]([C@H](C)CCC(=O)NS(=O)(=O)c4ccc(C(F)(F)F)cc4)CC[C@@H]23)[C@@]2(C)CC[C@@H](O)[C@H](F)[C@@H]12 [Compound 18, N-(3α,7α-Dihydroxyl-4β-fluoro-6α-ethyl-5β-cholan-24-oyl)-4-trifluoromethylphenyl sulfonamide] | 15 nM | 148% | highest | – | – | – | – | – | – | – | – | – | – | – | – | – |
| CC[C@@H]1[C@@H]2[C@@H](F)[C@H](O)CC[C@]2(C)C2CC[C@@]3(C)C(CCC3[C@H](C)CCNC(=O)NS(=O)(=O)c3ccccc3)C2[C@@H]1O (stereo partly drawn) [Compound 2, N,N′-(3α,7α-Dihydroxyl-4β-fluoro-6α-ethyl-24-nor-5β-cholan-23-yl)-benzene sulfonyl urea] | – | 195% | – | 7.62 | 1.5 times | 2.5 times | 11 fold | 18 fold | downregulated | significant downregulation | < 4.00 | 0% | neither Compound 2 nor Compound 14 has agonist activity at the TGR5 receptor | – | – | – |
| CC[C@H]1[C@@H](O)[C@@H]2[C@H](CC[C@]3(C)[C@@H]([C@H](C)CCC(=O)NS(=O)(=O)c4ccc(OC(F)(F)F)cc4)CC[C@@H]23)[C@@]2(C)CC[C@@H](O)[C@H](F)[C@@H]12 [Compound 14, N-(3α,7α-Dihydroxyl-4β-fluoro-6α-ethyl-5β-cholan-24-oyl)-p-trifluoromethoxy benzene sulfonamide] | – | – | – | – | – | – | – | – | – | – | < 4.00 | 0% | neither Compound 2 nor Compound 14 has agonist activity at the TGR5 receptor | more than doubled | significantly decreased | decline |
